Measured values reported in patent US20200246284A1 (Academia Sinica, priority 2015, published 2020).
Values joined by “and” are separate entries in the source; they are usually repeats but may differ in a detail not shown here. Equal entries are not always repeated. Where two headings read alike, the source gives them in different places.

Assays:
SK-LU-1 = type: cell-based, human
HCC827 = type: cell-based, human
[1] = tested on: normal human, murine or primate cell and tissue types; experiment: Cytotoxicity, panel of normal tissues (MTT, alamar blue); type: cell-based
[2] = tested on: 16HBE SV40+ bronchial epithelium; type: cell-based, human
H1975 = type: cell-based, human
H3122 = type: cell-based, human
HCC15 = type: cell-based, human
[3] = tested on: nude mice bearing prostate 22Rv/HL2 tumor xenografts; details: mouse, in vivo
H1781 = type: cell-based, human
H1666 = type: cell-based, human
H1373 = type: cell-based, human
[4] = tested on: nude mice bearing prostate 22Rv/HL2; details: mouse, in vivo; for BASO: test concentration or dose not given here; for EOS: test concentration or dose not given here; for LYM: test concentration or dose not given here; for MONO: test concentration or dose not given here; for NEU: test concentration or dose not given here; for PLT: test concentration or dose not given here
CALU-1 = type: cell-based, human
H525 = type: cell-based, human
H596 = type: cell-based, human
CALU-3 = type: cell-based, human
EBC1 = type: cell-based, human
H1703 = type: cell-based, human
PC1 (jap) = type: cell-based, human
A549 = type: cell-based, human
[5] = tested on: nude mice bearing prostate 22Rv/HL2; details: mouse, in vivo; remark: listed apart in the source; for BASO: test concentration or dose not given here; for EOS: test concentration or dose not given here; for LYM: test concentration or dose not given here; for MONO: test concentration or dose not given here; for NEU: test concentration or dose not given here; for PLT: test concentration or dose not given here
H3255 = type: cell-based, human
BMMSC BM mesenchyme = experiment: Cytotoxicity normal tissue 72 hr; type: cell-based, human
[6] = tested on: Cord Blood CFC (CFU-GM, BFU-E, CFU-C); type: cell-based, human
HS27 adult BM stroma = type: cell-based, human
H1395 = type: cell-based, human
H2228 = type: cell-based, human
H1755 = type: cell-based, human
SK-MES-1 = type: cell-based, human
HCC2450 = type: cell-based, human
PC9 = type: cell-based, human
[7] = tested on: MRC5 fetal lung fibroblast; type: cell-based, human
[8] = tested on: BEAS2B SV40 bronchial epithelium; type: cell-based, human
H1650 = type: cell-based, human
CALU-6 = type: cell-based, human
HCC364 = type: cell-based, human
H647 = type: cell-based, human
[9] = tested on: IMR90 fetal lung myofibroblast; experiment: Cytotoxicity normal tissue 72 hr; type: cell-based, human
H520 = type: cell-based, human
[10] = tested on: spontaneous murine B-cell lymphoma; experiment: Cytotoxicity, with or without MS5 stromal cells; details: read-out: cytotoxicity IC50; murine BCL, spontaneous NSG CD19+, no stromal support
SUDHL-5 = experiment: Cytotoxicity DLBCL; details: read-out: cytotoxicity IC50; SUDHL-5, DLBCL GCB
U2932 = experiment: Cytotoxicity DLBCL; details: read-out: cytotoxicity IC50; U2932, DLBCL ABC
Experimental: (§1) After 72 hours, the cultures were pulsed with Alamar Blue overnight, and the fluorescent intensity of resulted cultures was measured by a Synergy H1 plate-reader (BioTek Inc).

Granta = experiment: Combination with BO-1055, MCL (Tables 28, 29); type: cell-based, human; details: Granta; combo-1 BO-1055 variable, combo-2 partner variable
Ly8 = experiment: Cytotoxicity DLBCL; details: read-out: cytotoxicity IC50; LY8, DLBCL GCB
Experimental: as §1

Z-138 [11] = experiment: Combination with BO-1055, MCL (Tables 28, 29); type: cell-based, human; details: Z-138; combo-1 BO-1055 variable, combo-2 partner variable
Toledo = experiment: Cytotoxicity DLBCL; details: read-out: cytotoxicity IC50, DLBCL GCB
Experimental: as §1

Granta-519 = experiment: Cytotoxicity mantle cell lymphoma; details: read-out: cytotoxicity IC50; Granta-519, mantle cell lymphoma
Experimental: as §1

Ly3 (OCI-LY3) = experiment: Cytotoxicity DLBCL; details: read-out: cytotoxicity IC50; LY3, DLBCL ABC
Experimental: as §1

NECB-1 = experiment: Cytotoxicity mantle cell lymphoma; details: read-out: cytotoxicity IC50; NECB-1, mantle cell lymphoma
Experimental: as §1

JEKO-1 = experiment: Cytotoxicity mantle cell lymphoma
Experimental: as §1

REC-1 = experiment: Combination with BO-1055, MCL (Tables 28, 29); type: cell-based, human; details: REC-1; combo-1 BO-1055 variable, combo-2 partner variable
SUDHL-6 = experiment: Cytotoxicity DLBCL; details: read-out: cytotoxicity IC50; SUDHL-6, DLBCL GCB
Experimental: as §1

DLBCL (GBC) cell lines = experiment: Combination of BO-1055 with PUH71, TT46, bortezomib, doxorubicin (Table 25); type: cell-based; details: Homo sapiens, read-out: IC50 single agent
Ly18 = experiment: Cytotoxicity DLBCL; details: read-out: cytotoxicity IC50; LY18, DLBCL GCB
Experimental: as §1

Mino [12] = experiment: Combination with BO-1055, MCL (Tables 28, 29); type: cell-based, human; details: Mino; combo-1 BO-1055 variable, combo-2 partner variable
Mino [13] = experiment: Cytotoxicity mantle cell lymphoma; details: read-out: cytotoxicity IC50; Mino, mantle cell lymphoma
Experimental: as §1

LY1 = experiment: Cytotoxicity DLBCL; details: read-out: cytotoxicity IC50; LY1, DLBCL GCB
Experimental: as §1

SUDHL-4 = experiment: Cytotoxicity DLBCL; details: read-out: cytotoxicity IC50; SUDHL-4, DLBCL GCB
Experimental: as §1

Z-138 [14] = experiment: Cytotoxicity mantle cell lymphoma; details: read-out: cytotoxicity IC50; Z-138, mantle cell lymphoma
Experimental: as §1

HBL1 = experiment: Cytotoxicity DLBCL; details: read-out: cytotoxicity IC50; HBL1, DLBCL ABC
Experimental: as §1

Karpas-422 = experiment: Cytotoxicity DLBCL; details: read-out: cytotoxicity IC50; Karpas-422, DLBCL GCB
Experimental: as §1

NECB1 = experiment: Combination with BO-1055, MCL (Tables 28, 29); type: cell-based, human; details: NECB1; combo-1 BO-1055 variable, combo-2 partner variable

N.N.O=C([O-])C1(C(=O)[O-])CCC1.[Pt+2] [Carboplatin]
IC50 (SK-LU-1): 42.4 µM
IC50 (HCC827): 138 µM
IC50 [1]: ≥ 32.8 µM
IC50 [2]: 35.5 µM
IC50 (H1975): 60.2 µM
IC50 (H3122): 109 µM
IC50 (HCC15): 173 µM
pathological change in heart, liver, spleen, lung and kidney [3]: no apparent pathological change
IC50 (H1781): 3.99 µM
IC50 (H1666): 90.7 µM
IC50 (H1373): 29.3 µM
ALT [4]: 64.85 U/L
AST [4]: 119.15 U/L
BUN [4]: 21.17 mg/dL
CREA [4]: 0.31 mg/dL
UA [4]: 1.97 mg/dL
IC50 (CALU-1): 96.2 µM
IC50 (H525): 72.7 µM
IC50 (H596): 34.1 µM
IC50 (CALU-3): 84.5 µM
IC50 (EBC1): 168 µM
IC50 (H1703): ≥ 80 µM
IC50 (PC1 (jap)): 57.4 µM
IC50 (A549): 41.3 µM
BASO [5]: 0.03 10^3/μL
EOS [5]: 0.13 10^3/μL
LYM [5]: 0.60 10^3/μL
MONO [5]: 0.07 10^3/μL
NEU [5]: 1.13 10^3/μL
PLT [5]: 369 10^3/μL
RBC [5]: 9.37 10^6/μL
WBC [5]: 1.97 10^3/μL
IC50 (H3255): 24.3 µM
IC50 (BMMSC BM mesenchyme): 32.8 µM
IC50 [6]: 1.7 µM
IC50 (HS27 adult BM stroma): 35.3 µM
IC50 (H1395): 17.4 µM
IC50 (H2228): 8.62 µM
IC50 (H1755): 41.4 µM
IC50 (SK-MES-1): 160 µM
IC50 (HCC2450): 34.5 µM
IC50 (PC9): 32.1 µM
IC50 [7]: 210 µM
IC50 [8]: 120 µM
IC50 (H1650): 69.7 µM
IC50 (CALU-6): 14.7 µM
IC50 (HCC364): 172 µM
IC50 (H647): 25.5 µM
IC50 [9]: 1000 µM
IC50 (H520): 75.6 µM

CC(C)NCCCn1c(Sc2cc3c(cc2I)OCO3)nc2c(N)ncnc21 [PUH71]
IC50 [10]: 0.24 µM
IC50 (SUDHL-5): 0.41 µM
IC50 (U2932): 0.49 µM
interaction with BO-1055 (Granta): dually antagonistic
IC50 (Ly8): 0.81 µM
interaction with BO-1055 (Z-138 [11]): synergistic with BO-1055 in both combinations
IC50 (Toledo): 2.66 µM
IC50 (Granta-519): 1.22 µM
IC50 (Ly3 (OCI-LY3)): 2.78 µM
IC50 (NECB-1): 1.66 µM
IC50 (JEKO-1; JEKO-1, 72 hr (Table 27)): 0.31 µM
IC50 (JEKO-1; read-out: cytotoxicity IC50, JEKO-1, mantle cell lymphoma): 0.26 µM
interaction with BO-1055 (REC-1): antagonistic against REC-1 in both combinations
IC50 (SUDHL-6): 0.05 µM
IC50 (DLBCL (GBC) cell lines; Farage): 0.785 µM
IC50 (DLBCL (GBC) cell lines; KARPAS-422, KARPAS-422): 1.52 µM
IC50 (DLBCL (GBC) cell lines; OCI-LY19, OCI-LY19): 0.221 µM
IC50 (DLBCL (GBC) cell lines; OCI-Ly8, OCI-LY8): 0.814 µM
IC50 (DLBCL (GBC) cell lines; OCI-Ly18, OCI-LY18): 0.274 µM
IC50 (DLBCL (GBC) cell lines; OCY-LY1): 0.208 µM
IC50 (DLBCL (GBC) cell lines; OCY-LY7): 0.391 µM
IC50 (DLBCL (GBC) cell lines; PFEIFER): 0.335 µM
IC50 (DLBCL (GBC) cell lines; SU-DHL-4, SUDHL4): 0.379 µM
IC50 (DLBCL (GBC) cell lines; SU-DHL-5, SUDHL5): 0.336 µM
IC50 (DLBCL (GBC) cell lines; SU-DHL-6, SUDHL6): 0.672 µM
IC50 (DLBCL (GBC) cell lines; Toledo): 10.9 µM
IC50 (Ly18): 0.27 µM
interaction with BO-1055 (Mino [12]): dually synergistic
IC50 (Mino [13]): 0.26 µM
IC50 (LY1): 0.26 µM and 0.308 µM
IC50 (SUDHL-4): 0.2 µM
IC50 (Z-138 [14]): 0.06 µM
IC50 (HBL1): 1.67 µM
IC50 (Karpas-422): 0.45 µM
interaction with BO-1055 (NECB1): synergistic with BO-1055 against NECB1 in combo-1 and antagonistic in combo-2
